Each molecule was assayed against T1, Syk kinase (Homo sapiens, UniProt P43405) (assay: Syk kinase inhibition, Caliper LabChip off-chip mobility-shift kinase assay). Settings: Caliper LabChip assay; read-out: Syk Enzyme IC50.
T1 construct: purchased
Assay type: biochemical
Experimental: Compounds of the examples and Table 1 provided herein were assayed to measure their capacity to inhibit Syk kinase.
Compounds of the examples and Table 1 provided herein were assessed for their ability to inhibit Syk kinase by utilizing Caliper Life Sciences' proprietary LabChip™ technology. The off-chip incubation mobility-shift kinase assay uses a microfluidic chip to measure the conversion of a fluorescent peptide substrate to a phosphorylated product. The reaction mixture, from a microtiter plate well, is introduced through a capillary sipper onto the chip, where the nonphosphorylated substrate and phosphorylated product are separated by electrophoresis and detected via laser induced fluorescence. […] The phosphorylated product migrates through the chip faster than the non-phosphorylated substrate, and signals from the two forms of the peptide appear as distinct peaks. Caliper's data analysis software (HTSWA) determines peak heights, from which the ratio of product to the peak sum P/(P+S) and percent (%) conversion is calculated. This value is used to compare compound wells to control wells present on the plate, and thereby determine the % inhibition values for the compound. The formula used to calculate % inhibition is as follows, where C100% is the average % conversion of the 100% activity wells and Co% is the average % conversion of the 0% activity wells: (1−(% conversionofsample−C0%)/(C100%−C0%))*100.
Compounds (10 mM stocks in 100% DMSO) are diluted to a final concentration of 5 μM for single point inhibition experiments, and a series dilution of 10, 3, 1, 0.3, 0.1, 0.03, 0.01, 0.003, 0.001, 0.0003, 0.0001, and 0.00003 μM were made for IC50 determination. Generally, 12 μL of enzyme buffer containing purified kinase (various amount; various suppliers), 100 mM HEPES, pH 7.5, 1 mM DTT (Calbiochem, 2333153), 10 mM MgCl2 (Sigma, M-1028) or 10 mM MnCl2 (Sigma, M-1787) (assay specific), and 0.002% Brij-35 (Sigma, B4184) are added to each well. Compound and enzyme are allowed to pre-incubate for 15 minutes. 12 μL of peptide/ATP buffer containing 100 mM HEPES, pH 7.5, 1.5 μM fluorescein-labeled peptide (specific to kinase of interest), ATP (at KM apparent, Sigma, A9187), and 0.002% Brij-35 is then added to each well to initiate the reaction. The final concentration of DMSO in the well is 4%. Generally, reactions are incubated for 1 to 1.5 hours at room temperature to obtain adequate conversion of peptide to phosphorylated product in the linear range of the reaction. Reactions are terminated with the addition of 45 μL of Stop Buffer (containing 20 mM EDTA). Plates are then read on the LabChip 3000 using a 12-sipper LabChip. % conversion values and % inhibition values are obtained as provided and IC50 curves of compounds are generated using GraphPad Prism Version 4 or 5.01, or XLfit Version 4.3.2. When using GraphPad Prism, a nonlinear curve fit using the sigmoidal dose response—variable slope fit was used to graph IC50 curves and determine IC50 values and hillslopes. When using XLfit, Fit Model 205 (4-Parameter Logistic Model) is used to generate and fit the IC50 curve.
CC(C)(C)Nc1nc(Nc2cc(Oc3cn[nH]c3)ncn2)cc2ccn(C[C@H](O)CO)c(=O)c12 [compound 890] was tested, and the IC50 was 21 nM. In the case of CC(C)(C)Nc1nc(Nc2cc(-c3ccno3)ccn2)cc2ccn(CCO)c(=O)c12 [compound 689], the IC50 is reported as 151 nM. With N#CCCn1ccc2cc(Nc3cnccn3)nc(N[C@H]3CC[C@@H](O)CC3)c2c1=O [compound 1002] the IC50 was 14 nM. For CO/N=C(\C)c1ccnc(Nc2cc3ccn(CCO)c(=O)c3c(NC(C)(C)C)n2)c1 [compound 695], the IC50 was 431 nM. Molecule CCC(C)(C)Nc1nc(-c2cnc(N)nc2)cc2ccn(CCO)c(=O)c12 [compound 908] has an IC50 of 21 nM. CC(C)(C)Nc1nc(Nc2cnccn2)cc2ccn(C[C@H](O)CO)c(=O)c12 [compound 669] gave an IC50 of 6 nM. With CC(C(N)=O)n1ccc2cc(Nc3cnccn3)nc(NC(C)(C)C)c2c1=O (stereo not shown) [compound 660] the IC50 was 13 nM. In the case of Nc1ncc(-c2cc3ccn(C[C@H](O)CO)c(=O)c3c(NC3CCC3)n2)cn1 [compound 774], the IC50 is reported as 34 nM. In the case of [2H]C([2H])([2H])n1ccc2cc(Nc3cc(C)ccn3)nc(NC(C)(C)CO)c2c1=O [compound 1047], the IC50 is reported as 77.2 nM. Molecule CC(C)(C)Nc1nc(Nc2cc(C3(C(=O)O)CC3)ccn2)cc2ccn(CCO)c(=O)c12 [compound 856] has an IC50 of 393 nM. With Cc1cc(-c2ccnc(Nc3cc4ccn(CCO)c(=O)c4c(NC(C)(C)C)n3)c2)ccn1 [compound 854] the IC50 was 64 nM. For CC(C)(C)Nc1nc(Nc2cc(N3CCC(=O)CC3)ncn2)cc2ccn(CCO)c(=O)c12 [compound 632], the IC50 was 117 nM. CC(O)Cn1ccc2cc(-c3cnc(N)nc3)nc(NC(C)(C)C)c2c1=O (stereo not shown) [compound 927] gave an IC50 of 14 nM. For CC(C)(C)Nc1nc(Nc2cc(C(C)(C)O)ncn2)cc2ccn(CCS(C)(=O)=O)c(=O)c12 [compound 739], the IC50 was 35 nM. With CC(N)c1ccnc(Nc2cc3ccn(CCO)c(=O)c3c(NC(C)(C)C)n2)c1 (stereo not shown) [compound 712, 6-(4-(1-aminoethyl)pyridin-2-ylamino)-8-(tert-butylamino)-2-(2-hydroxyethyl)-2,7-naphthyridin-1(2H)-one] the IC50 was 53 nM. Molecule CCn1ccc2cc(-c3cnc(N)nc3)nc(N[C@H]3CC[C@@H](O)C3)c2c1=O [compound 1039] has an IC50 of 12 nM. Molecule CCn1ccc2cc(-c3cnc(N)nc3)nc(N[C@H]3CC[C@H](O)CC3)c2c1=O [compound 1032] has an IC50 of 46 nM. Work on CC(C)(C)Nc1nc(Nc2cnccn2)cc2ccn(CCOCCO)c(=O)c12 [compound 1013] yielded an IC50 of 69 nM. CC(C)(C)Nc1nc(-c2cnc(N)nc2)cc2ccn(CCCCO)c(=O)c12 [compound 920] gave an IC50 of 18 nM. Work on CC(C)(C)Nc1nc(-c2cnc(N)nc2)cc2ccn(C[C@H](O)CO)c(=O)c12 [compound 935] yielded an IC50 of 8 nM. CC(C)(C)Nc1nc(Nc2nccc(O)n2)cc2ccn(CCO)c(=O)c12 [compound 826] was tested, and the IC50 was 25 nM. CCn1ccc2cc(Nc3nccc(O)n3)nc(NC[C@@H]3CC[C@@H](O)C3)c2c1=O [compound 959] gave an IC50 of 41 nM. CC(C)(C)Nc1nc(-c2cnc(N)nc2)cc2ccn(CC(=O)N3CCOCC3)c(=O)c12 [compound 678] showed an IC50 of 78 nM. O=c1c2c(N[C@H]3CC[C@@H](O)CC3)nc(Nc3cnccn3)cc2ccn1C1COC1 [compound 1009] showed an IC50 of 19 nM. [2H]C([2H])([2H])n1ccc2cc(Nc3cc(C)ccn3)nc(N[C@H]3CC[C@@H](CO)C3)c2c1=O [compound 985] gave an IC50 of 41 nM. Molecule CCn1ccc2cc(Nc3cc(C)ccn3)nc(NC3CC=C(C)CC3)c2c1=O (stereo not shown) [compound 954] has an IC50 of 754 nM.

Same assay, conditions: read-out: Syk Enzyme IC50
Molecule CC1(Nc2nc(Nc3cnccn3)cc3ccn(CCO)c(=O)c23)CCC1 [compound 458] has an IC50 of 11.4 nM. Molecule CCN1CCN(C(=O)c2ccc(Nc3nc(-c4cncc(OC)n4)cc4cc[nH]c(=O)c34)cc2)CC1 [compound 64] has an IC50 of 35 nM. COc1cncc(-c2cc3cc[nH]c(=O)c3c(Nc3ccc(C4CCN(CCCC#N)CC4)c(C)c3)n2)n1 [compound 172] showed an IC50 of 19 nM. For COCC(C)Nc1nc(Nc2cc(C)ccn2)cc2cc[nH]c(=O)c12 (stereo not shown) [compound 266], the IC50 was 74 nM. Molecule Cc1ccnc(Nc2cc3cc[nH]c(=O)c3c(NCCN(C)C)n2)c1 [compound 588] has an IC50 of 1960 nM. CCNC(=O)C(C)N1CCC(c2ccc(Nc3nc(-c4cncc(OC)n4)cc4cc[nH]c(=O)c34)cc2C)CC1 (stereo not shown) [compound 120] gave an IC50 of 23 nM. For COc1cncc(-c2cc3cc[nH]c(=O)c3c(Nc3ccc(C4=CCSCC4)c(C)c3)n2)n1 [compound 12], the IC50 was 3430 nM. CC(=O)c1cc2cc[nH]c(=O)c2c(Nc2ccc(C3CCNCC3)c(C)c2)n1 [compound 232] gave an IC50 of 242 nM. Cc1ccnc(Nc2cc3ccn(CCO)c(=O)c3c(Nc3ccc(S(C)(=O)=O)cc3)n2)c1 [compound 404] was tested, and the IC50 was 63.4 nM. For Cc1ccnc(Nc2cc3cc[nH]c(=O)c3c(NC3CCOC3)n2)c1 (stereo not shown) [compound 273], the IC50 was 42 nM. Cc1ccnc(Nc2cc3cc[nH]c(=O)c3c(NC(C)C)n2)c1 [compound 490] was tested, and the IC50 was 32 nM. Work on Nc1ncc(-c2cc3cc[nH]c(=O)c3c(N[C@@H]3CCC[C@H]3O)n2)cn1 [compound 184] yielded an IC50 of 59 nM. With O=c1[nH]ccc2cc(C3CCNCC3)nc(Nc3ccc(N4CCOCC4)cc3)c12 [compound 2] the IC50 was 249 nM. Molecule COCCN1CC(c2ccc(Nc3nc(-c4cncc(OC)n4)cc4cc[nH]c(=O)c34)cc2)C1 [compound 150] has an IC50 of 83 nM. For COc1cncc(-c2cc3cc[nH]c(=O)c3c(Nc3ccc(C4CCN(CC(=O)N(C)OC)CC4)c(C)c3)n2)n1 [compound 176], the IC50 was 41 nM. For COc1cncc(-c2cc3cc[nH]c(=O)c3c(Nc3ccc(C4CCN(CCC#N)CC4)c(C)c3)n2)n1 [compound 128], the IC50 was 79 nM. Molecule CCN1CCN(CCc2ccc(Nc3nc(Nc4ccc(C(N)=O)cn4)cc4cc[nH]c(=O)c34)cc2)CC1 [compound 579] has an IC50 of 113 nM. Cc1ccnc(Nc2cc3cc[nH]c(=O)c3c(NCC3CC3)n2)c1 [compound 285] showed an IC50 of 201 nM. For CCn1ccc2cc(Nc3cc(C)ccn3)nc(N[C@H]3CC[C@@H](O)C3)c2c1=O [compound 424], the IC50 was 47 nM. C[C@@H]1CN([C@H]2CC[C@H](c3ccc(Nc4nc(-c5cncnc5)cc5cc[nH]c(=O)c45)cc3)CC2)CCO1 [compound 93] gave an IC50 of 433 nM. O=c1[nH]ccc2cc(C3=CCNCC3)nc(Nc3ccc(N4CCOCC4)cc3)c12 [compound 88] was tested, and the IC50 was 51 nM. Cc1ccnc(Nc2cc3cc[nH]c(=O)c3c(N[C@@H]3CCOC3)n2)c1 [compound 301] was tested, and the IC50 was 37 nM. For Cc1nc(N)ncc1-c1cc2cc[nH]c(=O)c2c(Nc2ccc([C@H]3CC[C@H](N4CCOCC4)CC3)cc2)n1 [compound 101], the IC50 was 668 nM. In the case of CCN1CCN(CCc2ccc(Nc3nc(-c4cncc(OC)n4)cc4c(F)c[nH]c(=O)c34)cc2)CC1 [compound 440], the IC50 is reported as 343 nM. Molecule CCn1ccc2cc(Nc3cnccn3)nc(N[C@H]3CCC[C@@H]3O)c2c1=O [compound 423] has an IC50 of 52.4 nM. With CCn1ccc2cc(Nc3cnccn3)nc(NC(C)(C)CO)c2c1=O [compound 471] the IC50 was 100 nM. In the case of Nc1nccc(-c2cc3cc[nH]c(=O)c3c(Nc3ccc(N4CCOCC4)cc3)n2)n1 [compound 53], the IC50 is reported as 494 nM. For COCCNc1nc(-c2cnc(N)nc2)cc2cc[nH]c(=O)c12 [compound 447], the IC50 was 101 nM. With Cc1ccnc(Nc2cc3ccn(CCO)c(=O)c3c(N[C@@H](C)CO)n2)c1 [compound 367] the IC50 was 13 nM. CC(=O)N1CCC(c2ccc(Nc3nc(Nc4cc(C)ccn4)cc4ccn(C)c(=O)c34)cc2)CC1 [compound 310] showed an IC50 of 763 nM. Work on CCCNC(=O)c1ccc(Nc2nc(Nc3cnccn3)cc3ccn(C)c(=O)c23)cc1 [compound 366] yielded an IC50 of 323 nM. With CN(C)Cc1n[nH]c2cc(Nc3nc(-c4cncc(C(=O)N5CCOCC5)c4)cc4cc[nH]c(=O)c34)ccc12 [compound 205] the IC50 was 104 nM. COc1cncc(-c2cc3cc[nH]c(=O)c3c(Nc3ccc(CCN4CCNC5(CCCC5)C4)cc3)n2)n1 [compound 22] showed an IC50 of 78 nM. O=c1[nH]cc(F)c2cc(-c3cncnc3)nc(Nc3ccc(N4CCOCC4)cc3)c12 [compound 429] gave an IC50 of 55 nM. Molecule Cn1ccc2cc(Nc3cnccn3)nc(Nc3ccc(C(=O)N4CCOCC4)cc3)c2c1=O [compound 476] has an IC50 of 350 nM.

— patent US20110053897A1 (IRM LLC, priority 2009, published 2011)
